Measurements published in the NIST ThermoML archive (doi:10.1021/je400402n).
Numbers after ± are expanded uncertainties.

Settings: 101 kPa, Liquid, HP 4194A impedance-gain phase analyzer

C[S+](C)[O-] [dimethyl sulfoxide]
Settings | electrical conductivity [S/m]
293.15 K | 0.000188 ± 3.8e-06
295.15 K | 0.000201 ± 4e-06
297.15 K | 0.000211 ± 4.2e-06
299.15 K | 0.000225 ± 4.5e-06
301.15 K | 0.000236 ± 4.7e-06
303.15 K | 0.000248 ± 5e-06
305.15 K | 0.000262 ± 5.2e-06
307.15 K | 0.000274 ± 5.5e-06
309.15 K | 0.000287 ± 5.7e-06
311.15 K | 0.0003 ± 6e-06
313.15 K | 0.000315 ± 6.3e-06
315.15 K | 0.000328 ± 6.6e-06
317.15 K | 0.000341 ± 6.8e-06
319.15 K | 0.000355 ± 7.1e-06
321.15 K | 0.000369 ± 7.4e-06
323.15 K | 0.000384 ± 7.7e-06
325.15 K | 0.000399 ± 8e-06
327.15 K | 0.000419 ± 8.4e-06
329.15 K | 0.000437 ± 8.7e-06
331.15 K | 0.000455 ± 9.1e-06
333.15 K | 0.000474 ± 9.5e-06
